According to US8835466B2, “Synthesis and uses of pyroglutamic acid derivatives” (Prodimed, S.A., priority 2006, dated 2014):

System: Ehrlich tumour cells (murine mammary adenocarcinoma)
Experiment: Effect of isomers and BLAS on in vivo tumour growth, Ehrlich tumours (Example 9)
Design: species or system Balb/c mice
Details: for Tumour surface, overall values (Mean) / Tumour surface, overall values (Median) / Tumour volume, overall values (Mean) / Tumour volume, overall values (Median): 260 ng/mouse i.p. days 6, 7 and 14
Text: This assay was made in order to compare the effect of each stereoisomer on in vivo tumour growth in mice with the effect of the mixture of all of them challenged with Ehlrich tumours. The same products, equipment, reagents, doses, vehicle and route of administration as in example 8 were used.
Mice were inoculated with Ehrlich tumour cells. It was described as a murine mammary adenocarcinoma. Ehrlich tumour is a murine mammary carcinoma originally raised in an outbred mouse, and therefore it belongs to the so-called non-specific tumours (Subiza J L, Viñuela J E, Rodriguez R, Gil J, Figueredo M A, de la Concha. E G. Development of splenic natural suppressor (NS) cells in Ehrlich tumor bearing mice. Int J Cancer, 44:307 315; 1989). It may grow across histocompatibility barriers and therefore is not mouse strain specific (Carry P J, Prescott D M, Ogilvie G K. Resistance to Ehrlich ascites tumor in a strain of dystrophic mice. Cancer Res., 39:2139-2140; 1979).
Ehrlich cells were maintained in vitro by serial passages every 3-4 days. Cultures were performed with RPMI medium medium (RPMI, 10% foetal calf serum, 2 mM L-glutamine, non essential aminoacids, 1 mM sodium pyruvate, 20 mM HEPES, 80 μg/mL gentamycin; all of them were purchased from Sigma, St. Louis, Mo., USA) by seeding 5×10^6 cells onto 75 cm^2 culture flasks. Tumour cells collected from 48 hour cultures were used as source of cells for the studies described below.
Tumours were established by subcutaneous inoculation in the right hind flank. Mice (Balb/c) were inoculated with 0.2 mL containing 2×10^5 viable Ehrlich cells. The day of subcutaneous inoculation will be considered Day 0 of the test.
Mice were observed daily and the tumour size recorded twice a week. This was carried out by measuring two perpendicular diameters (L/W) with a calliper. These measures were used to obtain both tumour surface and volume: Tumour surface=L×W(mm^2) Tumour volume=L×W^2×½(mm^3)
Results were expressed as single values and/or as the mean±SD or median from each experimental group.
A case-control study was performed with treated and control mice in order to determine whether differences between BLAS or each diferent stereoisomer and administration of placebo were present. […] The U-test of Mann Withney was chosen for being one of the better known non-parametrical tests, anyway, results for this test are equivalent both to those of Wilcoxon's sum of ranges and Kruskal-Wallis two-groups test.

[1] = day 13 after tumour inoculation
[2] = day 16 after tumour inoculation
[3] = day 20 after tumour inoculation
[4] = day 23 after tumour inoculation
[5] = day 29 after tumour inoculation
[6] = day 31 after tumour inoculation
[7] = day 35 after tumour inoculation
[8] = day 38 after tumour inoculation

SMILES: Br.N[C@]1(C[n+]2ccccc2)C[C@H](C(=O)O)NC1=O.[Br-] (single isomer, unassigned; isomer 4) [isomer 4, 3S,5R-1-(3-Amino-5-carboxy-2-oxopyrrolidin-3-ylmethyl)pyridinium bromide hidrobromide]
- Inhibition of the in vivo growth of Ehrlich tumour cells, in words (260 ng i.p. days 6, 7 and 14): inhibit the in vivo growth
- Tumour surface, overall values (Mean) (day 0 after tumour inoculation): 0 mm^2
- Tumour surface, overall values (Median) (day 0 after tumour inoculation): 0 mm^2
- Tumour volume, overall values (Mean) (day 0 after tumour inoculation): 0 mm^3
- Tumour volume, overall values (Median) (day 0 after tumour inoculation): 0 mm^3
- Tumour surface, overall values (Mean) (day 8 after tumour inoculation): 3.37 mm^2
- Tumour surface, overall values (Median) (day 8 after tumour inoculation): 0 mm^2
- Tumour volume, overall values (Mean) (day 8 after tumour inoculation): 5.94 mm^3
- Tumour volume, overall values (Median) (day 8 after tumour inoculation): 0 mm^3
- Tumour surface, overall values (Mean) [1]: 12.44 mm^2
- Tumour surface, overall values (Median) [1]: 12.5 mm^2
- Tumour volume, overall values (Mean) [1]: 26.91 mm^3
- Tumour volume, overall values (Median) [1]: 22.75 mm^3
- Tumour surface, overall values (Mean) [2]: 20.19 mm^2
- Tumour surface, overall values (Median) [2]: 18 mm^2
- Tumour volume, overall values (Mean) [2]: 50.34 mm^3
- Tumour volume, overall values (Median) [2]: 36 mm^3
- Tumour surface, overall values (Mean) [3]: 31.31 mm^2
- Tumour surface, overall values (Median) [3]: 27.5 mm^2
- Tumour volume, overall values (Mean) [3]: 95.59 mm^3
- Tumour volume, overall values (Median) [3]: 68.75 mm^3
- Tumour surface, overall values (Mean) [4]: 43.06 mm^2
- Tumour surface, overall values (Median) [4]: 39 mm^2
- Tumour volume, overall values (Mean) [4]: 156.53 mm^3
- Tumour volume, overall values (Median) [4]: 117 mm^3
- Tumour surface, overall values (Mean) [5]: 52.94 mm^2
- Tumour surface, overall values (Median) [5]: 45 mm^2
- Tumour volume, overall values (Mean) [5]: 214.91 mm^3
- Tumour volume, overall values (Median) [5]: 135 mm^3
- Tumour surface, overall values (Mean) [6]: 63.12 mm^2
- Tumour surface, overall values (Median) [6]: 48.5 mm^2
- Tumour volume, overall values (Mean) [6]: 274.94 mm^3
- Tumour volume, overall values (Median) [6]: 157.75 mm^3
- Tumour surface, overall values (Mean) [7]: 76.31 mm^2
- Tumour surface, overall values (Median) [7]: 52.5 mm^2
- Tumour volume, overall values (Mean) [7]: 379.72 mm^3
- Tumour volume, overall values (Median) [7]: 183.75 mm^3
- Tumour surface, overall values (Mean) [8]: 91.56 mm^2
- Tumour surface, overall values (Median) [8]: 68 mm^2
- Tumour volume, overall values (Mean) [8]: 504.22 mm^3
- Tumour volume, overall values (Median) [8]: 272 mm^3
- Differences in Ehrlich tumour growth rate vs. placebo, statistical significance p (Mann-Whitney U test) (either in surface or volume, all days scored after the day 8th): < 0.05
- Ehrlich tumour growth vs. placebo, tendency p (surface, day 35th): 0.061
- Ehrlich tumour growth vs. placebo, tendency p (surface, day 38th): 0.08
- Ehrlich tumour growth vs. placebo, tendency p (volume, days 35th and 38th (both of them)): 0.102
